Measured values as given in the supplement of paper PMC10307832.

Legend:
Assay in all cases: relative viability (nuclei count vs DMSO), 5 days (fraction); higher = more cells survive
[1] = compound: CC(C)=CC[C@@H](O)C1=CC(=O)c2c(O)ccc(O)c2C1=O [Shikonin] + O=C(c1cc(Cc2n[nH]c(=O)c3ccccc23)ccc1F)N1CCN(C(=O)C2CC2)CC1 [Olaparib] (partner 8 µM)
In short: (§1)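 A single step with final 0.05% Triton X-100, 1% formaldehyde and 1 ug/ml Hoechst fixed the cells and stained nuclei 5 days after treatment. Lung cancer cell lines in 1536-well plates had been treated by pin tool the day after seeding with one drug alone or a fixed anchor-drug dose plus five library-drug doses (not always all listed) in √10 steps, and nuclei were counted on 4× images. Relative viability is the ratio of nuclei in treated wells to nuclei in vehicle wells, taken as the median of duplicate plates.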

[2] = compound: CC(C)=CC[C@@H](O)C1=CC(=O)c2c(O)ccc(O)c2C1=O [Shikonin] + Nc1nc2[nH]cc(CCc3ccc(C(=O)N[C@@H](CCC(=O)O)C(=O)O)cc3)c2c(=O)[nH]1 [Pemetrexed] (partner 0.2 µM)
In short: as §1

[3] = compound: CC(C)N(CCCNC(=O)Nc1ccc(C(C)(C)C)cc1)C[C@H]1O[C@@H](n2ccc3c(N)ncnc32)[C@H](O)[C@@H]1O + O=C(CCCCCCC(=O)Nc1ccccc1)NO [Vorinostat] (partner 1 µM)
In short: as §1

[4] = compound: CC(C)N(CCCNC(=O)Nc1ccc(C(C)(C)C)cc1)C[C@H]1O[C@@H](n2ccc3c(N)ncnc32)[C@H](O)[C@@H]1O + CS(=O)(=O)N1CCN(Cc2cc3nc(-c4cccc5[nH]ncc45)nc(N4CCOCC4)c3s2)CC1 [Pictilisib] (partner 1 µM)
In short: as §1

Cell Line | relative viability ([1]; first compound 0.01 µM) | relative viability ([1]; first compound 0.1 µM) | relative viability ([1]; first compound 0.3162 µM) | relative viability ([1]; first compound 1 µM) | relative viability ([2]; first compound 0.01 µM) | relative viability ([2]; first compound 0.1 µM) | relative viability ([2]; first compound 0.3162 µM) | relative viability ([2]; first compound 1 µM) | relative viability ([3]; first compound 0.08 µM) | relative viability ([3]; first compound 0.253 µM) | relative viability ([3]; first compound 0.8 µM) | relative viability ([3]; first compound 2.53 µM) | relative viability ([3]; first compound 8 µM) | relative viability ([4]; first compound 0.08 µM) | relative viability ([4]; first compound 0.253 µM) | relative viability ([4]; first compound 0.8 µM) | relative viability ([4]; first compound 2.53 µM) | relative viability ([4]; first compound 8 µM)
LXF-289 | 1.11 | 0.966 | 1.11 | 1.06 | 0.892 | 0.959 | 0.955 | 0.945 | 0.748 | 0.762 | 0.726 | 0.752 | 0.701 | 0.775 | 0.752 | 0.788 | 0.852 | 0.738
NCI-H23 | 0.36 | 0.248 | 0.317 | 0.313 | 0.662 | 0.832 | 0.704 | 0.766 | 0.582 |  | 0.557 | 0.639 | 0.549 | 0.455 |  | 0.478 | 0.568 | 0.454
NCI-H322M | 0.806 | 0.757 | 0.671 | 0.88 | 0.575 | 0.591 | 0.6 | 0.777 | 0.891 | 0.899 | 0.805 | 0.842 | 0.912 | 0.54 | 0.478 | 0.566 | 0.44 | 0.57
NCI-H522 | 0.645 | 0.614 | 0.597 | 0.491 | 0.937 | 1 | 1.3 | 1.22 | 0.771 | 0.801 | 0.697 | 0.858 | 0.82 |  |  |  |  | 
NCI-H727 | 0.685 | 0.737 | 0.648 | 0.583 |  |  |  |  | 1.12 | 1.23 | 1.16 | 1.04 | 1.17 | 0.358 | 0.375 | 0.397 | 0.458 | 0.331
NCI-H1299 | 0.969 | 0.986 | 0.976 | 0.832 |  |  |  |  |  |  |  |  |  | 0.944 | 0.834 | 0.912 | 0.76 | 0.726
NCI-H1563 |  |  |  |  | 0.769 | 0.846 | 0.897 | 0.845 |  |  |  |  |  | 0.678 | 0.607 | 0.616 | 0.679 | 0.636
NCI-H1648 | 0.846 |  | 1.08 | 0.816 | 0.793 |  | 0.979 | 0.742 | 0.466 | 0.4 | 0.407 | 0.481 | 0.64 |  |  |  |  | 
NCI-H1703 | 0.42 | 0.47 | 0.395 | 0.241 |  |  |  |  |  |  |  |  |  | 0.223 | 0.247 | 0.257 | 0.244 | 0.24
NCI-H1792 | 0.263 | 0.314 | 0.463 | 0.427 | 0.819 | 0.82 | 0.689 | 0.958 |  |  |  |  |  | 0.26 | 0.245 | 0.219 | 0.254 | 0.267
NCI-H2342 | 0.43 | 0.392 | 0.38 | 0.383 | 0.808 | 0.852 | 0.809 | 0.804 | 0.708 | 0.744 | 0.669 | 0.778 | 0.775 |  |  |  |  | 
SW 900 | 1.05 | 0.776 | 0.917 | 0.717 | 0.422 | 0.548 | 0.468 | 0.535 | 0.639 | 0.38 |  | 0.562 | 0.548 |  |  |  |  | 
